This note sets out measurements from ChEMBL document CHEMBL1147311, “Plant antimutagenic agents, 7. Structure and antimutagenic properties of cymobarbatol and 4-isocymobarbatol, new cymopols from green alga (Cymopolia barbata)” (J Nat Prod, 1989).

The source made the active and inactive calls. The rule behind the calls is not given here.

The subject of data set [1] is Salmonella typhimurium. Put plainly: Toxicity in Salmonella Typhimurium T98 at 75 to 600 ug/plate in presence of histidine. The format is organism-based, Salmonella enterica subsp. enterica serovar Typhimurium.
The test system of data set [2] is Salmonella typhimurium. Put plainly: Toxicity in Salmonella Typhimurium T100 at 75 to 600 ug/plate in presence of histidine. The format is organism-based, Salmonella enterica subsp. enterica serovar Typhimurium.
Data set [3] has as its system Salmonella typhimurium. In words: Antimutagenic activity in Salmonella Typhimurium T98 assessed as inhibition of 2-aminoanthracene-induced mutation at 75 ug/plate. The format is functional, organism-based. Particulars: Salmonella enterica subsp. enterica serovar Typhimurium.
For data set [4], the system named is Salmonella typhimurium. In words: Toxicity in Salmonella Typhimurium T98 at 75 to 300 ug/plate in presence of histidine. The format is organism-based, Salmonella enterica subsp. enterica serovar Typhimurium.
Data set [5] relates to Salmonella typhimurium. Put plainly: Toxicity in Salmonella Typhimurium T100 at 75 to 300 ug/plate in presence of histidine. The format is organism-based, Salmonella enterica subsp. enterica serovar Typhimurium.
In data set [6] the test system is Salmonella typhimurium. In words: Antimutagenic activity in Salmonella Typhimurium T98 assessed as inhibition of 2-aminoanthracene-induced mutation at 300 ug/plate. Particulars: Salmonella enterica subsp. enterica serovar Typhimurium. Type of data set: functional, organism-based.
Data set [7] concerns Salmonella typhimurium. Put plainly: Antimutagenic activity in Salmonella Typhimurium T98 assessed as inhibition of 2-aminoanthracene-induced mutation at 150 ug/plate. Type of data set: functional, organism-based. Particulars: Salmonella enterica subsp. enterica serovar Typhimurium.
For data set [8], the system named is Salmonella typhimurium. In words: Antimutagenic activity in Salmonella Typhimurium T100 assessed as inhibition of ethyl methanesulfonate-induced mutation at 32.5 to 300 ug/plate in presence of Ames S9 fractions. Type of data set: functional, Salmonella enterica subsp. enterica serovar Typhimurium.

Regarding `CC(C)=CCC/C(C)=C/Cc1cc(O)c(Br)cc1O` [CYMOPOL], the Activity result in data set [1] and in data set [2] was “Toxic” each time.
For the molecule `CC1(C)[C@@H](Br)CC[C@]2(C)Oc3cc(Br)c(O)cc3C[C@@H]12`, the outcome in data set [3], in data set [6] and in data set [7] was Active. The Activity result in data set [4] and in data set [5] was “Non-toxic” throughout.
On to `CC1(C)[C@@H](Br)CC[C@@]2(C)Oc3cc(Br)c(O)cc3C[C@@H]12` [CYMOBARBATOL], for which the “inhibition (INH)” value in data set [8] is recorded as 80%. In addition, the Activity entry in data set [4] and in data set [5] was “Non-toxic” throughout. In addition, the result in data set [6] and in data set [7] was Active.
